{"source": "ChEMBL document CHEMBL1201862", "about": "“PubChem BioAssay data set” (2004)", "key": {"[1]": {"assay": "microbe, parasite or virus in culture", "type": "functional", "settings": "Mycobacterium tuberculosis"}, "Protein RecA": {"target": "T1, Protein RecA (Mycobacterium tuberculosis, UniProt P9WHJ3)", "T1 sequence (P9WHJ3 whole entry)": "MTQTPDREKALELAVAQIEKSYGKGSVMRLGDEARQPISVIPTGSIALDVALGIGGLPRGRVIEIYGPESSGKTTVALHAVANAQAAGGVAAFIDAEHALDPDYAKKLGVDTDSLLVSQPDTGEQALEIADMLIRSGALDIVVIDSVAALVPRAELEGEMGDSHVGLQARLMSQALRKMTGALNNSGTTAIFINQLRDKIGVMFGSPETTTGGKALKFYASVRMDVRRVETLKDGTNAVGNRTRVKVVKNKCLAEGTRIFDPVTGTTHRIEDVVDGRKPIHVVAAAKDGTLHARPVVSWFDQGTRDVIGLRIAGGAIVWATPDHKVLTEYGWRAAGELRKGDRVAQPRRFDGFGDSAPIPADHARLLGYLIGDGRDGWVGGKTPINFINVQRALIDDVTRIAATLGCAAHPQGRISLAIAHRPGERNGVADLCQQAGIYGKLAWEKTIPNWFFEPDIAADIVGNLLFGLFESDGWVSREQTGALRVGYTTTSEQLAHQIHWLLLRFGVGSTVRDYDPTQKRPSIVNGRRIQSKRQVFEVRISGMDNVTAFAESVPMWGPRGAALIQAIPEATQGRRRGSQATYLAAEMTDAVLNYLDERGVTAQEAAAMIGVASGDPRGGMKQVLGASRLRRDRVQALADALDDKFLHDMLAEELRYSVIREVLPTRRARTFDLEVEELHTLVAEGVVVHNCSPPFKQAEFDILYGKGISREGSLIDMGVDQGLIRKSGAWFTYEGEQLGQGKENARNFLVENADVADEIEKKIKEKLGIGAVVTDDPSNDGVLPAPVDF", "assay": "Fluorescence Cell-Free Homogeneous Dose Retest to Identify Inhibitors of RecA-Intein Splicing Activity. [Related pubchem assays (depositor defined):AID2097, AID2223, AID489010, AID492950]", "type": "functional"}, "[2]": {"target": "T2, Replicative DNA helicase DnaB (Mycobacterium tuberculosis, UniProt P9WMR3)", "T2 sequence (P9WMR3 whole entry)": "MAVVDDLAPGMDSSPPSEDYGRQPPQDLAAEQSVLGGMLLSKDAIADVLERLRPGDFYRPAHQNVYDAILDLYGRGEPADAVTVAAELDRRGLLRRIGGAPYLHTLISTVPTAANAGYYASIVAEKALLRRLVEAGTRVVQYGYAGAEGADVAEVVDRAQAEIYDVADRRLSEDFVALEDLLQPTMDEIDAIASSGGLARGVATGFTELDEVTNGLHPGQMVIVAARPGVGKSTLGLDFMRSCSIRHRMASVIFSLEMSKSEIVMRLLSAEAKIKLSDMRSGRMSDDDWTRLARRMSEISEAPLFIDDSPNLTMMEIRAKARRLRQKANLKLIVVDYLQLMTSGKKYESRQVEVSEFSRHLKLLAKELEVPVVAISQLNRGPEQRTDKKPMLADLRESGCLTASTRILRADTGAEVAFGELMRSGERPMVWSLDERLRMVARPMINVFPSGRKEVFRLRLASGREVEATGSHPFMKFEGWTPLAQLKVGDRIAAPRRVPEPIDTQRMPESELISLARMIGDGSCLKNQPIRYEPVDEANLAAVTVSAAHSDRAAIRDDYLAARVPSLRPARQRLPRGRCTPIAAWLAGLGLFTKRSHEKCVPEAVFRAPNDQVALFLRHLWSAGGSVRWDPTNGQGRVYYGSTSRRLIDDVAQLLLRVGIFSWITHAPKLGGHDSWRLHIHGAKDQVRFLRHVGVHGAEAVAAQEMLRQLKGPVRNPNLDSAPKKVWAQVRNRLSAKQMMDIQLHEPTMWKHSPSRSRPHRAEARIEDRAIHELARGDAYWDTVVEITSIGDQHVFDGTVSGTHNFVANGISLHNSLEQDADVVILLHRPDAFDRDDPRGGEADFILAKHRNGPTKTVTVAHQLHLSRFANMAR", "assay": "DnaB intein splicing inhibitors, dose response, biochemical, cell-free fluorescence (AID 449749)", "type": "functional"}, "[3]": {"assay": "Luminescence Cell-Based Dose Confirmation HTS to Identify Inhibitors of Platelet Dense Granule Release. [Related pubchem assays: 1663 (Primary HTS), 1678 (Summary of Project)]", "type": "functional"}, "[4]": {"assay": "viability of PTEN-deleted HCT116 cells – cell-based, HCT116 PTEN knockout, dose response (AID 1047);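 further: cells exposed to compound for 60 hours before readout; potency for loss of cell viability measured by luminescence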", "type": "functional"}, "H4": {"system": "H4", "assay": "Luminescence Cell-Based Dose Response HTS to Identify Activators of 5'UTR Stem-Loop Driven Prion Protein mRNA Translation in H4 Neuroglioblastoma Cells. [Related pubchem assays: 1829 (Project Summary), 1814 (Primary HTS)]", "type": "functional", "settings": "Homo sapiens"}, "[5]": {"target": "Luciferin 4-monooxygenase (Photinus pyralis, UniProt P08659)", "sequence (P08659 whole entry)": "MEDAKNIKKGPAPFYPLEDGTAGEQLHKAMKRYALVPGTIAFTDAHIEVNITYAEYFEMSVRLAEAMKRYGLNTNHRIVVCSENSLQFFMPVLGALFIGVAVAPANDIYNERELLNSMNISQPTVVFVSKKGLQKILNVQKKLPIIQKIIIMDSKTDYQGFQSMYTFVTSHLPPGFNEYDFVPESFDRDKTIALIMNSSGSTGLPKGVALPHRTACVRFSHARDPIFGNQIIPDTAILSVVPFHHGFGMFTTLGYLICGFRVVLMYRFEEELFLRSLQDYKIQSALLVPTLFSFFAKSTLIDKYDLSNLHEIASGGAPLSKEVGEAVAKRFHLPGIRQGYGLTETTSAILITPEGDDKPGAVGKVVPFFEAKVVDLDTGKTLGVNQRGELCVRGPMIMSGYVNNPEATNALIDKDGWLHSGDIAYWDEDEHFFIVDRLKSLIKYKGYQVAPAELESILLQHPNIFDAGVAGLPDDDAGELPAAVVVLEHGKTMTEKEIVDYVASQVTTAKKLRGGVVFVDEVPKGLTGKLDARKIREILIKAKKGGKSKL", "assay": "inhibition of purified Photinus pyralis luciferase – biochemical, luminescence, dose response (AID 1891)"}, "[6]": {"assay": "Luminescence Cell-Based Dose Confirmation HTS to Identify Activators of 5'UTR Stem-Loop Driven Alpha-Synuclein mRNA Translation in H4 Neuroglioblastoma Cells. [Related pubchem assays: 1829 (Project Summary), 1814 (Primary HTS)]", "type": "functional"}, "[7]": {"assay": "Luminescence Cell-Based Dose Response HTS to Identify Activators of Luciferase Translation or Activity in H4 […] Cells. [Related pubchem assays: 1829 (Project Summary), 1814 (Primary HTS)]", "type": "functional"}, "[8]": {"assay": "viability of HCT116 lacking mutant beta-catenin – cell-based, human colon tumor, dose response (AID 1045);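 further: cells exposed to compound for 60 hours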", "type": "functional"}, "Streptokinase A": {"target": "T3, Streptokinase A (Streptococcus pyogenes serotype M1, UniProt P10520)", "T3 sequence (P10520 whole entry)": "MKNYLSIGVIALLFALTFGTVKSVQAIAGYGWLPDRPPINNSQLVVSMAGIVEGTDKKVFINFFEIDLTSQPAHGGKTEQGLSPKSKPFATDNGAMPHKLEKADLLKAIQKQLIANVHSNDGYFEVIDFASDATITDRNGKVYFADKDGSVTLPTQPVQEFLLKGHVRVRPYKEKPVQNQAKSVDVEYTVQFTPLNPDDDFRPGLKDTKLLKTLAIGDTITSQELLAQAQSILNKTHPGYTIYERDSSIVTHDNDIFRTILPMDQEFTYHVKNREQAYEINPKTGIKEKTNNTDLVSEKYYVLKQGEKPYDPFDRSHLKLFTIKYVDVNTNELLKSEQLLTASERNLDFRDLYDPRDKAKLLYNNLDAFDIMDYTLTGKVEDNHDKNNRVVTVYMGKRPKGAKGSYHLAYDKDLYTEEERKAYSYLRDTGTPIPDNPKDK", "assay": "viability-normalized secreted streptokinase activity reduction – plasminogen activation absorbance, OD405, dose response (AID 1914);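 further: secreted streptokinase activity via plasminogen activation per viability signal from cell pellet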", "type": "functional, Streptococcus pyogenes M1 GAS"}, "Streptococcus": {"system": "Streptococcus", "assay": "GAS UMAA2166 growth inhibition – luminescence, BacTiterGlo, counter-screen for streptokinase expression inhibitor project, dose response (AID 1915);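 further: potency for reduction of bacterial viability or growth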", "type": "functional, organism-based"}, "Fatty acid synthase [9]": {"target": "T4, Fatty acid synthase (Homo sapiens, UniProt P49327)", "T4 sequence (P49327 whole entry)": "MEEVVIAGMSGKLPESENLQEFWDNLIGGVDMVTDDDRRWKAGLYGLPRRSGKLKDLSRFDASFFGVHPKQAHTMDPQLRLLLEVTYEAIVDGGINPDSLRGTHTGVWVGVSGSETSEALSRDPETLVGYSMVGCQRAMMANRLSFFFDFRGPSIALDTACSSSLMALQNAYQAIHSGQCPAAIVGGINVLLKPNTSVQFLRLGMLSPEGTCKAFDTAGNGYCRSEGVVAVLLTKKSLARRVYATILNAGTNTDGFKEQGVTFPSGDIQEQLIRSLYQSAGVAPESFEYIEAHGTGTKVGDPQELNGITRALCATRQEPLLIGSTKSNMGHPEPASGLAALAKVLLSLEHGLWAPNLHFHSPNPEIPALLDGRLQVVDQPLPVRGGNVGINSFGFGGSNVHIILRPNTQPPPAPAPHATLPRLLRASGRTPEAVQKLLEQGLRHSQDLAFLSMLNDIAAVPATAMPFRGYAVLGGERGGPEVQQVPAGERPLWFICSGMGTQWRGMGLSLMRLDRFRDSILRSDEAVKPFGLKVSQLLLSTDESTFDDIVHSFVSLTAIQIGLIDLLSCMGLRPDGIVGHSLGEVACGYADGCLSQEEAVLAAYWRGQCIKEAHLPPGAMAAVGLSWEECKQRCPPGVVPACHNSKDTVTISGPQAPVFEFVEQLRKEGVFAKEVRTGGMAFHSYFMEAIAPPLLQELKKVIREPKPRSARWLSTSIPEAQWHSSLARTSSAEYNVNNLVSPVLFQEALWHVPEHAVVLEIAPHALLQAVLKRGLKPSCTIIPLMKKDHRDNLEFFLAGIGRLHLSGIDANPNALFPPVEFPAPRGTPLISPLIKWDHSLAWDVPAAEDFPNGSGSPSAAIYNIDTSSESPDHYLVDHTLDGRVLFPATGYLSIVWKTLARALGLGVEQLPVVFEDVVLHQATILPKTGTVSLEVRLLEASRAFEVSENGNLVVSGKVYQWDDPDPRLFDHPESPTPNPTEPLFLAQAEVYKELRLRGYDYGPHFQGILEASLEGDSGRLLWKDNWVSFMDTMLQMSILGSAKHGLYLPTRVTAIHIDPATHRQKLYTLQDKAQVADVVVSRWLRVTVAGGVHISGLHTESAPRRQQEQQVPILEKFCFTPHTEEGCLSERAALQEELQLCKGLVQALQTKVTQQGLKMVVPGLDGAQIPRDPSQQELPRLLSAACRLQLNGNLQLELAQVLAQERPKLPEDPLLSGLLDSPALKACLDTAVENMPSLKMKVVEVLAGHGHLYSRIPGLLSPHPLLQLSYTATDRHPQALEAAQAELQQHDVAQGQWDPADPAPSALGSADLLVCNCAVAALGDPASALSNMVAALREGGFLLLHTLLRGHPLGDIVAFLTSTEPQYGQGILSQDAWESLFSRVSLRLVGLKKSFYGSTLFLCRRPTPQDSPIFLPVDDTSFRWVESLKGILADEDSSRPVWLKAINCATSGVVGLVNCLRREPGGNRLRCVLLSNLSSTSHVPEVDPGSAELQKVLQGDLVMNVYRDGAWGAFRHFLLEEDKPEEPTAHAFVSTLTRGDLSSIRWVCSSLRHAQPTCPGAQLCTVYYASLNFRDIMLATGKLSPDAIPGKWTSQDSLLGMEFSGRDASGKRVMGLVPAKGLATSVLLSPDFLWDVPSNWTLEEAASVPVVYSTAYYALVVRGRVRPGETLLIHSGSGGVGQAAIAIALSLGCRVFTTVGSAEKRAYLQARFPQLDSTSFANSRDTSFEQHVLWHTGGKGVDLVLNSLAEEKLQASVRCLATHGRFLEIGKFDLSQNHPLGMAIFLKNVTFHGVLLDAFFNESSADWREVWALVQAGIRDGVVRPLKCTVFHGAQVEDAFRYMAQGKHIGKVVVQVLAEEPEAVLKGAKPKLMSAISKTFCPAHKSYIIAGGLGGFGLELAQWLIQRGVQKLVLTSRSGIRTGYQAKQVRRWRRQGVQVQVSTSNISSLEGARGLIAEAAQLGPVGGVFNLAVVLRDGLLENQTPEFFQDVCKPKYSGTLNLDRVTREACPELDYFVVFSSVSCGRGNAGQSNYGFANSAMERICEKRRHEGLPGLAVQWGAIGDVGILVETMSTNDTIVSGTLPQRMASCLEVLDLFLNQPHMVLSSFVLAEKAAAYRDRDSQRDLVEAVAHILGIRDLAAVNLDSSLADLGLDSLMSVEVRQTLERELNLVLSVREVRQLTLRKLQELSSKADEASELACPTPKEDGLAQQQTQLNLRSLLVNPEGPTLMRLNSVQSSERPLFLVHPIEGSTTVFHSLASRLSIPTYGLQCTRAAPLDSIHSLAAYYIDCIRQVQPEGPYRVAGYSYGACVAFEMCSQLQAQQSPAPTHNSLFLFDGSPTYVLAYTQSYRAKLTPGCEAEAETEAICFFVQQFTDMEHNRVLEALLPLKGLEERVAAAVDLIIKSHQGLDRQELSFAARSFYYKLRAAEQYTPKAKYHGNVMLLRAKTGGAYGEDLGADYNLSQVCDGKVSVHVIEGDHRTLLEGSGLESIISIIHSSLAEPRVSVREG", "assay": "inhibition of human FAS-TE enzyme activity – biochemical, kinetic fluorescence intensity, dose response (AID 624326);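 further: rate of fluorescence rise from hydrolysis of a fluorogenic O-methyl fluorescein ester substrate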", "type": "functional"}, "Fatty acid synthase [10]": {"target": "T4, Fatty acid synthase", "assay": "inhibition of human FAS-TE enzyme activity – biochemical, endpoint fluorescence intensity, uHTS hits, dose response (AID 624327);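 further: fluorescence from hydrolysis of an O-methyl fluorescein acyl ester substrate by the enzyme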", "type": "functional"}, "[11]": {"assay": "Trypanosoma cruzi growth suppression in host cells – NIH3T3 host cells, beta-gal luminescence, confirmation (AID 2044);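 further: luminescent beta-galactosidase reporter signal from transgenic T. cruzi replicating inside host cells; inhibitors lower the luminescence signal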", "type": "functional, cell-based"}, "[12]": {"system": "Streptococcus sp. 'group A'", "assay": "Streptococcus pyogenes SK(-)GAS viability under kanamycin – luminescence, BacTiterGlo, confirmation, counter-screen for streptokinase expression inhibitor project, dose response (AID 1900)", "type": "functional, organism-based"}, "[13]": {"assay": "NIH3T3 cell viability loss – ATP luminescence, mouse fibroblasts, counter-screen, dose response (AID 2010);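 further: cells exposed to compound for about 90 hours before reading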", "type": "functional, cell-based"}, "[14]": {"assay": "NIH-3T3 fibroblast cytotoxicity, dose response, cytotoxicity control, cell-based, fluorescence, Alamar Blue, secondary assay (AID 2327);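 further: NIH-3T3 mouse fibroblasts cultured with fluconazole at 8 µg/mL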", "type": "functional"}, "Cytochrome P450 3A4": {"target": "Cytochrome P450 3A4 (Homo sapiens, UniProt P08684)", "sequence (P08684 whole entry)": "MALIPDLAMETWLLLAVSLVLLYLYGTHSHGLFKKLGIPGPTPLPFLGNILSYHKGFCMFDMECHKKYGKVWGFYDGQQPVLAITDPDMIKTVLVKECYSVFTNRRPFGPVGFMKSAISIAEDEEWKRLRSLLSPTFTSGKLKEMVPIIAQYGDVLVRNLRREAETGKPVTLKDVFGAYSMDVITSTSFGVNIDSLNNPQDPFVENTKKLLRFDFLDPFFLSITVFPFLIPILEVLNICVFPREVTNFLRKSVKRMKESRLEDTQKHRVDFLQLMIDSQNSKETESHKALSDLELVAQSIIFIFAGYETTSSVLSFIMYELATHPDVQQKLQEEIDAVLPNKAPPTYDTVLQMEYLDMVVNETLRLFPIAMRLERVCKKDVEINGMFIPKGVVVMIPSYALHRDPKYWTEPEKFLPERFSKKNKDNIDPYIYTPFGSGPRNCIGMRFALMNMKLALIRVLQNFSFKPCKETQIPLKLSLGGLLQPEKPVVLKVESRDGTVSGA"}, "Cytochrome P450 2C19": {"target": "Cytochrome P450 2C19 (Homo sapiens, UniProt P33261)", "sequence (P33261 whole entry)": "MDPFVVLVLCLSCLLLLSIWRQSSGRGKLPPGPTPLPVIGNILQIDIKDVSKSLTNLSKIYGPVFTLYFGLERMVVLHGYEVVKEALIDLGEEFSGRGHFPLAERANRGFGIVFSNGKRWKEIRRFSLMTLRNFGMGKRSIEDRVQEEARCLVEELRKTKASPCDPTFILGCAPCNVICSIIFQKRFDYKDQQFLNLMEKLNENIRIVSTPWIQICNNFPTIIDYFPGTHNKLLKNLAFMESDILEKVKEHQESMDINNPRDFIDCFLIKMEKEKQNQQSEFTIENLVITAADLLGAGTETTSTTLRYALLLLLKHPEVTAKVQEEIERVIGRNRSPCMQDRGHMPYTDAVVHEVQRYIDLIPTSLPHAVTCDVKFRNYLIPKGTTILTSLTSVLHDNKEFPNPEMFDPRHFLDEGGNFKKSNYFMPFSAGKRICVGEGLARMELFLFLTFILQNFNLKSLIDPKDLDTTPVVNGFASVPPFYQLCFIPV", "assay": "Cytochrome panel assay with activity outcomes. Panel member name: p450-cyp2c19 Compounds with AC50 equal or less than 10 uM are considered active", "type": "functional", "settings": "read-out: AC50"}, "Cytochrome P450 2C9": {"target": "Cytochrome P450 2C9 (Homo sapiens, UniProt P11712)", "sequence (P11712 whole entry)": "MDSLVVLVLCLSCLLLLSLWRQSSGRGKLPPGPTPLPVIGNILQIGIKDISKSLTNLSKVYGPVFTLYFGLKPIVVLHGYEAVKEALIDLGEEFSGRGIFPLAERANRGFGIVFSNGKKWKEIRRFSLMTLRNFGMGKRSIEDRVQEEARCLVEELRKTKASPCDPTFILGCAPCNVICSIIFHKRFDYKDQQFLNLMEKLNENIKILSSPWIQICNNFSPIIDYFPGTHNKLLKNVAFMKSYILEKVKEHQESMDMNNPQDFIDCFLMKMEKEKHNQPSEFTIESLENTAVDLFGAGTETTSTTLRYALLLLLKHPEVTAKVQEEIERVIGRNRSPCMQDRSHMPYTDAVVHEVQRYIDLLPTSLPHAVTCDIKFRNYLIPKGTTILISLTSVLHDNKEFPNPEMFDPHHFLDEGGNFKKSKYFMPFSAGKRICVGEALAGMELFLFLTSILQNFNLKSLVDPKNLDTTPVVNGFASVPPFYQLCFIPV"}}, "note": "Calls of active or inactive are those of the source.", "data": [{"smiles": "Clc1ccc(CNc2nc(CN3CCOCC3)nc3scc(-c4ccccc4)c23)cc1", "values": [{"measurement": "CC50", "setting": "[1]", "value": "> 40 µM (active)"}]}, {"smiles": "CC(C)(C)c1csc(NC(=O)c2c(F)c(F)c(F)c(F)c2F)n1", "values": [{"measurement": "EC50", "setting": "Protein RecA", "value": "18.4 µM (active)"}, {"measurement": "AC50", "setting": "[2]", "value": "26 µM (active)"}, {"measurement": "CC50", "setting": "[1]", "value": "34 µM (active)"}]}, {"smiles": "Cc1ccc2[nH]c(/C(C#N)=C/c3c[nH]nc3-c3ccc(F)cc3)nc2c1", "values": [{"measurement": "EC50", "setting": "[3]", "value": "46.2 µM (active)"}, {"measurement": "EC50", "setting": "[4]", "value": "7.74 µM (active)"}, {"measurement": "EC50", "setting": "H4", "value": "> 120 µM (not active)"}, {"measurement": "EC50", "setting": "[5]", "value": "> 112 µM (not active)"}, {"measurement": "EC50", "setting": "[6]", "value": "> 120 µM (not active)"}, {"measurement": "EC50", "setting": "[7]", "value": "5.96 µM (active)"}, {"measurement": "CC50", "setting": "[1]", "value": "26.9 µM (active)"}, {"measurement": "EC50", "setting": "[8]", "value": "9.64 µM (active)"}]}, {"smiles": "Cc1cccc(NC(=O)c2[nH]cnc2C(=O)N[C@@H](CCCCNC(=O)OC(C)(C)C)C(=O)OC(C)(C)C)c1", "values": [{"measurement": "EC50", "setting": "Streptokinase A", "value": "> 150 µM (not active)"}, {"measurement": "EC50", "setting": "Streptococcus", "value": "8.6 µM (active)"}, {"measurement": "IC50", "setting": "Fatty acid synthase [9]", "value": "0.658 µM (active)"}, {"measurement": "IC50", "setting": "Fatty acid synthase [10]", "value": "1.12 µM (active)"}, {"measurement": "EC50", "setting": "[11]", "value": "2.44 µM (active)"}, {"measurement": "EC50", "setting": "[12]", "value": "3.46 µM (active)"}, {"measurement": "EC50", "setting": "[13]", "value": "> 60 µM (not active)"}]}, {"smiles": "CCS(=O)(=O)c1ccc(-c2cccc(NC(=O)COc3ccc(Cl)cc3)c2)nn1", "values": [{"measurement": "EC50", "setting": "[14]", "value": "> 150 µM (inactive)"}]}, {"smiles": "COc1ccc(N2COC3c4cccc5cccc(c45)C32)cc1", "note": "(stereo not given)", "values": [{"measurement": "CC50", "setting": "[1]", "value": "> 40 µM (active)"}]}, {"smiles": "Cc1ccc(OC(=O)c2oc3ccc(F)cc3c2C)c(C)c1", "values": [{"measurement": "AC50", "setting": "Cytochrome P450 3A4", "value": "39.8 µM (inconclusive)"}, {"measurement": "AC50", "setting": "Cytochrome P450 2C19", "value": "11.2 µM (inconclusive)"}, {"measurement": "AC50", "setting": "Cytochrome P450 2C9", "value": "10 µM (inconclusive)"}, {"measurement": "CC50", "setting": "[1]", "value": "3.94 µM (active)"}]}]}
